Assay results as given in ChEMBL document CHEMBL5291721, “A preclinical secondary pharmacology resource illuminates target-adverse drug reaction associations of marketed drugs” (Nat Commun, 2023).

Assays:
Mu-type opioid receptor = Mu-type opioid receptor (Homo sapiens, UniProt P35372)
Progesterone receptor = molecular target: T1, Progesterone receptor (Homo sapiens, UniProt P06401)
T1 sequence (P06401 whole entry): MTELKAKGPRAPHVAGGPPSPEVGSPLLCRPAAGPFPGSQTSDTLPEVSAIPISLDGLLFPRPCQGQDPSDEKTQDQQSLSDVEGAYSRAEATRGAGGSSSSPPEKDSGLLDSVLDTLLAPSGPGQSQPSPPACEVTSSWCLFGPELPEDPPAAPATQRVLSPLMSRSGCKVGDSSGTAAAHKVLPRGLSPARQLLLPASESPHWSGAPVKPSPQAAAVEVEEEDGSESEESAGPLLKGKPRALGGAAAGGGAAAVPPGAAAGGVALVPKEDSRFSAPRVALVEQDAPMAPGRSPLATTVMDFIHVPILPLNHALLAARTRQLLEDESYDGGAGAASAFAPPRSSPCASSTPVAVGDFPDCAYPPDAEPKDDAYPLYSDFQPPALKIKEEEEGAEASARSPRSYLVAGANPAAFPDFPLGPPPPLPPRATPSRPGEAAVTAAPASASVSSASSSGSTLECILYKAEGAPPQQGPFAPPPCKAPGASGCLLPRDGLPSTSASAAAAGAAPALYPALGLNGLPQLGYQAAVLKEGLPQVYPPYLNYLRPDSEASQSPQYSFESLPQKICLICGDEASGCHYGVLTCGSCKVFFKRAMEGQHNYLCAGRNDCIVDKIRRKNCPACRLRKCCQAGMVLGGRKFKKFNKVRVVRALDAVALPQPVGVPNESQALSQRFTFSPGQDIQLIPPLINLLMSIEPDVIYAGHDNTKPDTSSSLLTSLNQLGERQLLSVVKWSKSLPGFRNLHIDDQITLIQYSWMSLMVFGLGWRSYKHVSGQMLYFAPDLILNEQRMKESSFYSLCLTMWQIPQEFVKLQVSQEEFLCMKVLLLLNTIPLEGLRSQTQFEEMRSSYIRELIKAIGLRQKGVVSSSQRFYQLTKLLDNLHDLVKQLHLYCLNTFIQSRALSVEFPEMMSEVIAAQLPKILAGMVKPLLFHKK

[1] = molecular target: T2, Alpha-1A adrenergic receptor (Homo sapiens, UniProt P35348)
T2 sequence (P35348 whole entry): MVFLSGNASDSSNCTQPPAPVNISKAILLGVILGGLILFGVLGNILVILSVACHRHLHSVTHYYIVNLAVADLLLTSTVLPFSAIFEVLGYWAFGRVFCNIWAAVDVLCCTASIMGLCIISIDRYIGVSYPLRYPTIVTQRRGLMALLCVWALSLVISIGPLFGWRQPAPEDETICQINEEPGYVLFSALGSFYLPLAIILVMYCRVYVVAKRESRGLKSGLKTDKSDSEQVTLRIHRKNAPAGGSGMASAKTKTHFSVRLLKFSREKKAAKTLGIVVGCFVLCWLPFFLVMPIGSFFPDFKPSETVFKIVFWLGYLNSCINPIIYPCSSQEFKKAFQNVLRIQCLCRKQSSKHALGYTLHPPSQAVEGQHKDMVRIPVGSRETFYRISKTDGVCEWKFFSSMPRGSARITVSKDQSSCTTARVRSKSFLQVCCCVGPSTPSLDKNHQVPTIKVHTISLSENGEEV

[2] = molecular target: T3, Corticotropin-releasing factor receptor 2 (Homo sapiens, UniProt Q13324)
T3 sequence (Q13324 whole entry): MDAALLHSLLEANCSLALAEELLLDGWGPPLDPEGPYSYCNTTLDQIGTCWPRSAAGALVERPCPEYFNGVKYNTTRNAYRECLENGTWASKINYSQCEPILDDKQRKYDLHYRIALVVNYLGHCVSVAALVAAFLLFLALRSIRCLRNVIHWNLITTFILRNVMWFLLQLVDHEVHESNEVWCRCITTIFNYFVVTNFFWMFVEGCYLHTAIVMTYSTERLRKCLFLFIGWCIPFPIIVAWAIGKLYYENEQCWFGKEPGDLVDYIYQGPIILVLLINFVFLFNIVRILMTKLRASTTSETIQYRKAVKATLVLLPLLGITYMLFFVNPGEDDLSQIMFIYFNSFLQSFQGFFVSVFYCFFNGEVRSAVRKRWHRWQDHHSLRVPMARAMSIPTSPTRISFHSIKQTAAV

[3] = molecular target: Beta-3 adrenergic receptor (Homo sapiens, UniProt P13945)
Beta-3 adrenergic receptor, sequence (P13945 whole entry): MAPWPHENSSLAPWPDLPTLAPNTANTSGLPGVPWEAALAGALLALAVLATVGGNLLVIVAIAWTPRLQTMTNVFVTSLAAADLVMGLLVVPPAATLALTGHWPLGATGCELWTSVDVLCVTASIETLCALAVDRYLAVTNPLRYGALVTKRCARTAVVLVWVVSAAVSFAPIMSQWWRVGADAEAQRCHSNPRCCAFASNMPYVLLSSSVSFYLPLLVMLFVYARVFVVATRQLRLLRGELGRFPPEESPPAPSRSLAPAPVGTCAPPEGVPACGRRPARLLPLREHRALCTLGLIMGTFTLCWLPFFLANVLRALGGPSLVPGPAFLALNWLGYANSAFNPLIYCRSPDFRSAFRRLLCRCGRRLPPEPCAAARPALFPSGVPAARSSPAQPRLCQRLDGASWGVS

[4] = molecular target: T4, Muscarinic acetylcholine receptor M2 (Homo sapiens, UniProt P08172)
T4 sequence (P08172 whole entry): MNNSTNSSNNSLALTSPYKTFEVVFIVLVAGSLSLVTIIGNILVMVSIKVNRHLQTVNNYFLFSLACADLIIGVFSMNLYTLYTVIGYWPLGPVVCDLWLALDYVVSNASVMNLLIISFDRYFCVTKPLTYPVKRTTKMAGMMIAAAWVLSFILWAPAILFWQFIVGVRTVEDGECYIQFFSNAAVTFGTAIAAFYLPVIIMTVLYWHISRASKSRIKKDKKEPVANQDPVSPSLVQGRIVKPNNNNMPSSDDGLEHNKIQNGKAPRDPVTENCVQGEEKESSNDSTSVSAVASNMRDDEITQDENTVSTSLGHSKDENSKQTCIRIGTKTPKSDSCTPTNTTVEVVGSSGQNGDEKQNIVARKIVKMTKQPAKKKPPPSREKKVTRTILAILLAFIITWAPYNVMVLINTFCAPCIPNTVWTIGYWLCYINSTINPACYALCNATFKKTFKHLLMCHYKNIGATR

[5] = molecular target: T5, 5-hydroxytryptamine receptor 1A (Homo sapiens, UniProt P08908)
T5 sequence (P08908 whole entry): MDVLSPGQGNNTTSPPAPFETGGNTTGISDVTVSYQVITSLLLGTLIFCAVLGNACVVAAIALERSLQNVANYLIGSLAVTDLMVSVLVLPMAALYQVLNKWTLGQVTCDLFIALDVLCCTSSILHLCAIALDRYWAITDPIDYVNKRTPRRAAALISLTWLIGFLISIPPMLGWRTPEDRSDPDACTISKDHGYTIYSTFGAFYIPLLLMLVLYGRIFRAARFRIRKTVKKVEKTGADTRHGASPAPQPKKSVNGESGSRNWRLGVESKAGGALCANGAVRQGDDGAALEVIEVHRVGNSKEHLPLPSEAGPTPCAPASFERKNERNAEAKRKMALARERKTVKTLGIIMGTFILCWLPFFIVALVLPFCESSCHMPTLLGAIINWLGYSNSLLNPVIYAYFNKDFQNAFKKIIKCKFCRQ
Note: assay procedure not described here.

Mu-type opioid receptor, sequence (P35372 whole entry): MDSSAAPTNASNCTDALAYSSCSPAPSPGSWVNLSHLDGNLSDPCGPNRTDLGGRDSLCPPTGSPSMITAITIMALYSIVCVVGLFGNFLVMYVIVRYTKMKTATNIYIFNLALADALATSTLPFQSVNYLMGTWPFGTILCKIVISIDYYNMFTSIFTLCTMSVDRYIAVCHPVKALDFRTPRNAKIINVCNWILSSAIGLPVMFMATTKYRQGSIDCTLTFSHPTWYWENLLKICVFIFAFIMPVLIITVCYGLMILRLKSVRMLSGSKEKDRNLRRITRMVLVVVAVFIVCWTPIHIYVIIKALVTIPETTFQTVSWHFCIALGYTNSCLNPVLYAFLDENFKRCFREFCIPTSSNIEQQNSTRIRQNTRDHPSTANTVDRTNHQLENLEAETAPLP

Row | SMILES | AC50 (Mu-type opioid receptor) [µM] | AC50 (Progesterone receptor) [µM] | AC50 [1] [µM] | AC50 [2] [µM] | AC50 [3] [µM] | AC50 [4] [µM] | AC50 [5] [µM]
1 | CN1CC(=O)N2[C@H](c3ccc4c(c3)OCO4)c3[nH]c4ccccc4c3C[C@@H]2C1=O | > 30 | > 30 | > 10 | – | – | – | –
2 | CC(=O)OCC(=O)[C@@]12OC3(CCCC3)O[C@@H]1C[C@H]1[C@@H]3CCC4=CC(=O)C=C[C@]4(C)[C@@]3(F)[C@@H](O)C[C@@]12C [AMCINONIDE] | > 30 | – | > 10 | – | – | – | –
3 | CN1CCc2cccc3c2[C@H]1Cc1ccc(O)c(O)c1-3 [APOMORPHINE] | > 30 | 26 | > 10 | > 30 | > 30 | > 10 | –
4 | CC(C)c1c(C(=O)Nc2ccccc2)c(-c2ccccc2)c(-c2ccc(F)cc2)n1CC[C@@H](O)C[C@@H](O)CC(=O)O [ATORVASTATIN] | – | > 30 | > 10 | > 30 | > 30 | – | > 10
5 | Cc1cc2c(OCC(CNC(C)(C)C)OC(=O)c3ccccc3)cccc2[nH]1 (stereo not drawn) [BOPINDOLOL] | – | – | – | – | – | – | 0.0522
6 | CC(C)C(=O)OCC(=O)[C@@]12O[C@H](C3CCCCC3)O[C@@H]1C[C@H]1[C@@H]3CCC4=CC(=O)C=C[C@]4(C)[C@H]3[C@@H](O)C[C@@]12C [CICLESONIDE] | > 30 | – | > 10 | – | – | – | –
7 | CN1C(=O)CC(=O)N(c2ccccc2)c2cc(Cl)ccc21 [CLOBAZAM] | > 30 | – | > 10 | – | – | – | –
8 | [H]/N=C(/N)c1ccc(NCc2nc3cc(C(=O)N(CCC(=O)O)c4ccccn4)ccc3n2C)cc1 [DABIGATRAN] | > 30 | – | – | – | – | – | –
9 | CCCCOc1cc(C(=O)NCCN(CC)CC)c2ccccc2n1 [DIBUCAINE] | > 30 | – | > 10 | – | – | – | –
10 | CC(=O)O[C@@]12CO[C@@H]1C[C@H](O)[C@@]1(C)C(=O)[C@H](O)C3=C(C)[C@@H](OC(=O)[C@H](O)[C@@H](NC(=O)OC(C)(C)C)c4ccccc4)C[C@@](O)([C@@H](OC(=O)c4ccccc4)[C@H]21)C3(C)C [DOCETAXEL ANHYDROUS] | – | – | > 30 | – | – | – | –
11 | C#CC1(OC(N)=O)CCCCC1 [ETHINAMATE] | > 30 | – | > 10 | – | – | – | –
12 | CCNC(C)Cc1cccc(C(F)(F)F)c1 (stereo not drawn) [FENFLURAMINE] | > 30 | > 30 | – | > 30 | > 30 | > 10 | –
13 | COc1c(N2CCNC(C)C2)c(F)cc2c(=O)c(C(=O)O)cn(C3CC3)c12 (stereo not drawn) [GATIFLOXACIN] | > 30 | – | > 30 | – | – | – | –
14 | CCC1(C2=CCCCCC2)C(=O)NC(=O)NC1=O [HEPTABARBITAL] | > 30 | – | > 10 | – | – | – | –
15 | CCCCCN(C)CCC(O)(P(=O)(O)O)P(=O)(O)O [IBANDRONIC ACID] | > 30 | > 30 | > 10 | > 30 | > 30 | – | > 10
16 | O=C(CCCCC(=O)Nc1c(I)cc(I)c(C(=O)O)c1I)Nc1c(I)cc(I)c(C(=O)O)c1I [IODIPAMIDE] | > 30 | – | > 30 | – | – | – | –
17 | CC(C)[N+](C)(CCC(C(N)=O)(c1ccccc1)c1ccccc1)C(C)C [ISOPROPAMIDE] | > 30 | – | > 10 | – | – | 0.012 | –
18 | COC(=O)C1=C(C)NC(C)=C(C(=O)OC(C)C)C1c1cccc2nonc12 (stereo not drawn) [ISRADIPINE] | > 30 | – | > 30 | – | – | – | –

Row | SMILES | AC50 (Mu-type opioid receptor) [µM] | AC50 (Progesterone receptor) [µM] | AC50 [1] [µM] | AC50 [2] [µM] | AC50 [3] [µM] | AC50 [4] [µM] | AC50 [5] [µM]
19 | CCN1CCC[C@H]1CNC(=O)c1cc(S(N)(=O)=O)ccc1OC [LEVOSULPIRIDE] | > 30 | > 30 | 16 | – | – | – | > 10
20 | CC/C=C\C/C=C\C/C=C\CCCCCCCC(=O)O [LINOLENIC ACID] | > 30 | – | – | – | – | – | –
21 | CC1=CC(=O)c2ccccc2C1=O [MENADIONE] | > 30 | – | > 30 | – | – | – | –
22 | COc1ccccc1OCC(O)COC(N)=O (stereo not drawn) [METHOCARBAMOL] | > 30 | – | > 10 | – | – | – | –
23 | CCCCCCCCOc1ccccc1C(=O)Nc1ccc(C(=O)OCC[N+](C)(CC)CC)cc1 [OTILONIUM BROMIDE] | – | – | – | – | – | – | > 30
24 | CN1CCCN=C1COC(=O)C(O)(c1ccccc1)C1CCCCC1 (stereo not drawn) [OXYPHENCYCLIMINE] | > 30 | – | > 10 | – | – | 0.0263 | –
25 | CN1CCC2=C(C1)C(c1ccccc1)c1ccccc12 (stereo not drawn) [PHENINDAMINE] | > 30 | – | > 10 | – | – | – | –
26 | CN1C(=O)CC(c2ccccc2)C1=O (stereo not drawn) [PHENSUXIMIDE] | > 30 | – | > 10 | – | – | – | –
27 | CC(Cc1ccccc1)NCCC(c1ccccc1)c1ccccc1 (stereo not drawn) [PRENYLAMINE] | 1.8 | > 30 | 0.877 | – | – | – | 0.957
28 | CCN(CC)CCOC(=O)c1ccc(N)cc1 [PROCAINE] | > 30 | > 30 | > 10 | – | – | – | > 10
29 | C#CCN[C@@H]1CCc2ccccc21 [RASAGILINE] | – | – | 20 | – | – | – | –
30 | C1COC(NC(C2CC2)C2CC2)=N1 [RILMENIDINE] | > 30 | > 30 | 4.39 | – | – | – | 20.5
31 | C#CCN(C)[C@H](C)Cc1ccccc1 [SELEGILINE] | > 30 | – | 12.7 | – | – | – | –
32 | O=C1NCCN1CCN1CCC(c2cn(-c3ccc(F)cc3)c3ccc(Cl)cc23)CC1 [SERTINDOLE] | – | – | 0.017 | – | – | – | –
33 | Cc1c(C(=O)Nc2ccc(N3C[C@@H](C)O[C@@H](C)C3)nc2)cccc1-c1ccc(OC(F)(F)F)cc1 [SONIDEGIB] | > 10 | 19.7 | – | > 30 | > 30 | > 10 | > 10
34 | CN[C@@H]1[C@H](O)[C@H](NC)[C@H]2O[C@@]3(O)C(=O)C[C@@H](C)O[C@H]3O[C@@H]2[C@H]1O [SPECTINOMYCIN] | > 30 | – | > 10 | – | – | – | –
35 | CC(=O)NS(=O)(=O)c1ccc(N)cc1 [SULFACETAMIDE] | > 30 | – | > 10 | – | – | – | –
36 | CN1CCN(C(=O)OC2c3nccnc3C(=O)N2c2ccc(Cl)cn2)CC1 (stereo not drawn) [ZOPICLONE] | > 10 | > 30 | > 10 | > 30 | > 30 | – | > 10
